{"source": "patent US10111435B2", "about": "“Herbicidal compositions containing N-(1,3,4-oxadiazol-2-yl)-aryl carboxylic acid amides” (BAYER CROPSCIENCE AKTIENGESELLSCHAFT, priority 2013, dated 2018)", "assay_type_in_all_cases": "in vivo", "key": {"Poa annua (POAAN)": {"test_system": "Poa annua (POAAN)", "assay": "greenhouse post-emergence herbicidal efficacy against POAAN", "procedure,_shortened": "(§1)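 Seeds sown in 8 cm pots of sandy loam soil and grown in a greenhouse; treatments sprayed post-emergence at 300 L/ha. Visual damage scored against untreated plants at 14 and 21 days (0% no effect, 100% complete kill); mixture values compared with Colby expected values to assign synergism, additivity or antagonism.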"}, "Setaria viridis (SETVI)": {"test_system": "Setaria viridis (SETVI)", "assay": "greenhouse post-emergence herbicidal efficacy against SETVI", "procedure,_shortened": "(§2)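 Seeds sown in sandy loam pots were sprayed post-emergence in the greenhouse at 300 L/ha with combinations or single active ingredients. Visual damage versus untreated plants scored 0–100% at 14 and 21 days.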"}, "Galium aparine (GALAP)": {"test_system": "Galium aparine (GALAP)", "assay": "greenhouse post-emergence herbicidal efficacy against GALAP", "conditions": "for Efficacy: 14 days after application", "procedure,_shortened": "as §1"}, "[1]": {"test_system": "Matricaria inodora (MATIN)", "assay": "greenhouse post-emergence herbicidal efficacy against MATIN", "conditions": "14 days after application", "procedure,_shortened": "as §1"}, "Phalaris minor (PHAMI)": {"test_system": "Phalaris minor (PHAMI)", "assay": "greenhouse post-emergence herbicidal efficacy against PHAMI", "procedure,_shortened": "as §1"}, "DIGSA": {"test_system": "DIGSA", "assay": "greenhouse post-emergence herbicidal efficacy against DIGSA", "conditions": "14 days after application, 0.4 g of a.i./ha", "procedure,_shortened": "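Pot-grown plants in sandy loam sprayed post-emergence at 300 L/ha in the greenhouse, with compositions or single active ingredients. Damage scored visually against untreated plants 14 and 21 days after application (0% none, 100% complete kill); combination interactions evaluated by Colby's expected-value formula.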"}, "[2]": {"test_system": "Polygonum convolvulus (POLCO)", "assay": "greenhouse post-emergence herbicidal efficacy against POLCO", "conditions": "21 days after application", "procedure,_shortened": "as §1"}, "[3]": {"test_system": "Echinochloa crus-galli (ECHCG)", "assay": "greenhouse post-emergence herbicidal efficacy against ECHCG", "procedure,_shortened": "as §2"}, "Kochia scoparia (KCHSC)": {"test_system": "Kochia scoparia (KCHSC)", "assay": "greenhouse post-emergence herbicidal efficacy against KCHSC", "procedure,_shortened": "as §2"}, "[4]": {"test_system": "Amaranthus retroflexus (AMARE)", "assay": "greenhouse post-emergence herbicidal efficacy against AMARE", "conditions": "0.4 g of a.i./ha", "procedure,_shortened": "as §2"}, "Bromus sterilis (BROST)": {"test_system": "Bromus sterilis (BROST)", "assay": "greenhouse post-emergence herbicidal efficacy against BROST", "conditions": "21 days after application", "procedure,_shortened": "as §1"}, "Eleusine indica (ELEIN)": {"test_system": "Eleusine indica (ELEIN)", "assay": "greenhouse post-emergence herbicidal efficacy against ELEIN", "procedure,_shortened": "as §2"}, "[5]": {"test_system": "Chenopodium album (CHEAL)", "assay": "greenhouse post-emergence herbicidal efficacy against CHEAL", "procedure,_shortened": "as §2"}, "Avena fatua (AVEFA)": {"test_system": "Avena fatua (AVEFA)", "assay": "greenhouse post-emergence herbicidal efficacy against AVEFA", "procedure,_shortened": "as §1"}, "[6]": {"test_system": "Lolium multiflorum (LOLMU)", "assay": "greenhouse post-emergence herbicidal efficacy against LOLMU", "conditions": "21 days after application", "procedure,_shortened": "as §1"}, "Solanum nigrum (SOLNI)": {"test_system": "Solanum nigrum (SOLNI)", "assay": "greenhouse post-emergence herbicidal efficacy against SOLNI", "procedure,_shortened": "as §2"}, "[7]": {"conditions": "14 days after application, 2.5 g of a.i./ha"}, "[8]": {"conditions": "14 days after application, 10 g of a.i./ha"}, "[9]": {"conditions": "21 days after application, dosage 10 g of a.i./ha"}, "[10]": {"conditions": "21 days after application, g of a.i./ha: A1-13 2.5, mesosulfuron-methyl 10"}, "[11]": {"conditions": "14 days after application, 0.1 g of a.i./ha"}, "[12]": {"conditions": "14 days after application, 0.4 g of a.i./ha"}, "[13]": {"conditions": "21 days after application, 0.1 g of a.i./ha"}, "[14]": {"conditions": "21 days after application, 0.4 g of a.i./ha"}, "[15]": {"conditions": "21 days after application; 0.1 g of a.i./ha"}, "[16]": {"conditions": "21 days after application; 0.4 g of a.i./ha"}, "[17]": {"conditions": "g of a.i./ha: A1-13 2.5, indaziflam 10"}, "[18]": {"conditions": "g of a.i./ha: A1-13 10, indaziflam 10"}, "[19]": {"conditions": "21 days after application, g of a.i./ha: A1-13 2.5, indaziflam 40"}, "[20]": {"conditions": "21 days after application, g of a.i./ha: A1-13 10, indaziflam 40"}, "[21]": {"conditions": "21 days after application, g of a.i./ha: A1-13 10, mesosulfuron-methyl 10"}, "[22]": {"conditions": "g of a.i./ha: A1-13 2.5, mesosulfuron-methyl 10"}, "[23]": {"conditions": "g of a.i./ha: A1-13 10, mesosulfuron-methyl 10"}}, "data": [{"smiles": "Cc1nnc(NC(=O)c2ccc(C(F)(F)F)c(S(C)(=O)=O)c2C)o1", "note": "[A1-13]", "values": [{"measurement": "Efficacy", "setting": "Poa annua (POAAN); [7]", "result": 20, "unit": "%"}, {"measurement": "Efficacy", "setting": "Poa annua (POAAN); [8]", "result": 40, "unit": "%"}, {"measurement": "Efficacy against POAAN", "setting": "Poa annua (POAAN); [9]", "result": 20, "unit": "%"}, {"measurement": "Efficacy", "setting": "Poa annua (POAAN); [10]", "result": 10, "unit": "%"}, {"measurement": "Efficacy", "setting": "Setaria viridis (SETVI); [11]", "result": 0, "unit": "%"}, {"measurement": "Efficacy", "setting": "Setaria viridis (SETVI); [12]", "result": 10, "unit": "%"}, {"measurement": "Efficacy", "setting": "Setaria viridis (SETVI); [13]", "result": 0, "unit": "%"}, {"measurement": "Efficacy", "setting": "Setaria viridis (SETVI); [14]", "result": 10, "unit": "%"}, {"measurement": "Efficacy", "setting": "Setaria viridis (SETVI); [15]", "result": 0, "unit": "%"}, {"measurement": "Efficacy", "setting": "Setaria viridis (SETVI); [16]", "result": 10, "unit": "%"}, {"measurement": "Efficacy", "setting": "Galium aparine (GALAP); 10 g of a.i./ha", "result": 50, "unit": "%"}, {"measurement": "Efficacy", "setting": "Galium aparine (GALAP); [17]", "result": 40, "unit": "%"}, {"measurement": "Efficacy", "setting": "Galium aparine (GALAP); g of a.i./ha: A1-13 10, indaziflam 40", "result": 50, "unit": "%"}, {"measurement": "Efficacy against GALAP", "setting": "Galium aparine (GALAP); [9]", "result": 60, "unit": "%"}, {"measurement": "Efficacy", "setting": "[1]; 2.5 g of a.i./ha", "result": 30, "unit": "%"}, {"measurement": "Efficacy", "setting": "[1]; 10 g of a.i./ha", "result": 40, "unit": "%"}, {"measurement": "Efficacy", "setting": "[1]; [17]", "result": 30, "unit": "%"}, {"measurement": "Efficacy", "setting": "[1]; [18]", "result": 40, "unit": "%"}, {"measurement": "Efficacy", "setting": "Phalaris minor (PHAMI); [7]", "result": 30, "unit": "%"}, {"measurement": "Efficacy", "setting": "Phalaris minor (PHAMI); [8]", "result": 30, "unit": "%"}, {"measurement": "Efficacy", "setting": "Phalaris minor (PHAMI); 14 days after application, g of a.i./ha: A1-13 2.5, indaziflam 40", "result": 30, "unit": "%"}, {"measurement": "Efficacy", "setting": "Phalaris minor (PHAMI); 14 days after application, g of a.i./ha: A1-13 10, indaziflam 40", "result": 30, "unit": "%"}, {"measurement": "Efficacy", "setting": "Phalaris minor (PHAMI); [19]", "result": 15, "unit": "%"}, {"measurement": "Efficacy", "setting": "Phalaris minor (PHAMI); 21 days after application, g of a.i./ha: A1-13 2.5, mesosulfuron-methyl 2.5", "result": 15, "unit": "%"}, {"measurement": "Efficacy", "setting": "Phalaris minor (PHAMI); [10]", "result": 15, "unit": "%"}, {"measurement": "Efficacy", "setting": "Phalaris minor (PHAMI); [20]", "result": 20, "unit": "%"}, {"measurement": "Efficacy", "setting": "Phalaris minor (PHAMI); [21]", "result": 20, "unit": "%"}, {"measurement": "Efficacy", "setting": "DIGSA", "result": 0, "unit": "%"}, {"measurement": "Efficacy", "setting": "[2]; [22]", "result": 0, "unit": "%"}, {"measurement": "Efficacy", "setting": "[2]; [23]", "result": 0, "unit": "%"}, {"measurement": "Efficacy", "setting": "[3]; [11]", "result": 0, "unit": "%"}, {"measurement": "Efficacy", "setting": "[3]; [12]", "result": 0, "unit": "%"}, {"measurement": "Efficacy", "setting": "[3]; [13]", "result": 0, "unit": "%"}, {"measurement": "Efficacy", "setting": "[3]; [14]", "result": 0, "unit": "%"}, {"measurement": "Efficacy", "setting": "[3]; [15]", "result": 0, "unit": "%"}, {"measurement": "Efficacy", "setting": "[3]; [16]", "result": 0, "unit": "%"}, {"measurement": "Efficacy", "setting": "Kochia scoparia (KCHSC); [11]", "result": 0, "unit": "%"}, {"measurement": "Efficacy", "setting": "Kochia scoparia (KCHSC); [12]", "result": 0, "unit": "%"}, {"measurement": "Efficacy", "setting": "Kochia scoparia (KCHSC); [14]", "result": 0, "unit": "%"}, {"measurement": "Efficacy", "setting": "Kochia scoparia (KCHSC); [15]", "result": 0, "unit": "%"}, {"measurement": "Efficacy", "setting": "Kochia scoparia (KCHSC); [16]", "result": 0, "unit": "%"}, {"measurement": "Efficacy", "setting": "[4]; 14 days after application", "result": 0, "unit": "%"}, {"measurement": "Efficacy", "setting": "[4]; 21 days after application", "result": 10, "unit": "%"}, {"measurement": "Efficacy", "setting": "Bromus sterilis (BROST); g of a.i./ha: A1-13 2.5, mesosulfuron-methyl 2.5", "result": 0, "unit": "%"}, {"measurement": "Efficacy", "setting": "Bromus sterilis (BROST); [22]", "result": 0, "unit": "%"}, {"measurement": "Efficacy", "setting": "Bromus sterilis (BROST); [18]", "result": 5, "unit": "%"}, {"measurement": "Efficacy", "setting": "Bromus sterilis (BROST); [23]", "result": 5, "unit": "%"}, {"measurement": "Efficacy", "setting": "Eleusine indica (ELEIN); [12]", "result": 20, "unit": "%"}, {"measurement": "Efficacy", "setting": "Eleusine indica (ELEIN); [13]", "result": 0, "unit": "%"}, {"measurement": "Efficacy", "setting": "Eleusine indica (ELEIN); [14]", "result": 10, "unit": "%"}, {"measurement": "Efficacy", "setting": "Eleusine indica (ELEIN); [15]", "result": 0, "unit": "%"}, {"measurement": "Efficacy", "setting": "Eleusine indica (ELEIN); [16]", "result": 10, "unit": "%"}, {"measurement": "Efficacy", "setting": "[5]; [11]", "result": 0, "unit": "%"}, {"measurement": "Efficacy", "setting": "[5]; [12]", "result": 10, "unit": "%"}, {"measurement": "Efficacy", "setting": "[5]; [13]", "result": 0, "unit": "%"}, {"measurement": "Efficacy", "setting": "Avena fatua (AVEFA); [8]", "result": 35, "unit": "%"}, {"measurement": "Efficacy", "setting": "Avena fatua (AVEFA); [19]", "result": 0, "unit": "%"}, {"measurement": "Efficacy", "setting": "Avena fatua (AVEFA); [10]", "result": 0, "unit": "%"}, {"measurement": "Efficacy", "setting": "Avena fatua (AVEFA); [20]", "result": 3, "unit": "%"}, {"measurement": "Efficacy", "setting": "Avena fatua (AVEFA); [21]", "result": 3, "unit": "%"}, {"measurement": "Efficacy", "setting": "[6]; [18]", "result": 5, "unit": "%"}, {"measurement": "Efficacy", "setting": "[6]; [23]", "result": 5, "unit": "%"}, {"measurement": "Efficacy", "setting": "Solanum nigrum (SOLNI); [11]", "result": 10, "unit": "%"}, {"measurement": "Efficacy", "setting": "Solanum nigrum (SOLNI); [12]", "result": 20, "unit": "%"}, {"measurement": "Efficacy", "setting": "Solanum nigrum (SOLNI); [14]", "result": 10, "unit": "%"}]}]}
